Assay results published in paper PMC7763892, “Anti-Inflammatory Effect of Homo- and Heterodimers of Natural Enkephalinase Inhibitors in Experimental Colitis in Mice” (Molecules, 2020).
Where a SMILES comes first, the peptide text is derived from it.

Tests used:
[1] = Stability in human plasma; format: in vitro ADME; details: RP-HPLC
Procedure: Plasma-stability assays were performed, as described previously. The sample preparation and the analysis of peptide I were both performed in the same way as in our previous work. Peptides III and X were analyzed by RP-HPLC using a linear gradient of 20–80% B over 20 min with the same solvent system of 0.1% TFA in water (A) and 0.1% TFA in acetonitrile (B), with a flow rate of 1.5 mL/min. All measurements were performed in triplicate.

[2] = Solubility in Tris-HCl buffer; format: physicochemical; details: Tris-HCl buffer + 3% DMSO
Procedure: The designed dimers (peptides IX–XI) were sparingly soluble in Tris-HCl buffer. To improve their solubility in Tris-HCl buffer, 3% DMSO was added to the samples. […] In the time of analysis of spinorphin (III) and peptide IV, products with the same retention time as the analyzed substrate, were created, which made determining the inhibitory activity of the investigated peptides against NEP impossible.

[3] = biological target: neutral endopeptidase (NEP) (Homo sapiens, UniProt P08473); details: Tris-HCl buffer 50 mM, pH 7.4, 37 °C, RP-HPLC, mean ± SEM, ref Sobocińska et al. [24], cited from earlier work
[4] = system: TNBS-induced colitis; details: mouse model; cited from earlier work
[5] = cited from earlier work
[6] = cited from earlier work; remark: listed apart in the source
Procedure: In stability assays in human plasma, peptide X was included because this compound was selected for in vivo assays of the anti-inflammatory activity. […] After 2 h of incubation, the levels of peptide X were, respectively, 10.3 and ...

Chain of neutral endopeptidase (NEP) (P08473 whole entry, species assumed): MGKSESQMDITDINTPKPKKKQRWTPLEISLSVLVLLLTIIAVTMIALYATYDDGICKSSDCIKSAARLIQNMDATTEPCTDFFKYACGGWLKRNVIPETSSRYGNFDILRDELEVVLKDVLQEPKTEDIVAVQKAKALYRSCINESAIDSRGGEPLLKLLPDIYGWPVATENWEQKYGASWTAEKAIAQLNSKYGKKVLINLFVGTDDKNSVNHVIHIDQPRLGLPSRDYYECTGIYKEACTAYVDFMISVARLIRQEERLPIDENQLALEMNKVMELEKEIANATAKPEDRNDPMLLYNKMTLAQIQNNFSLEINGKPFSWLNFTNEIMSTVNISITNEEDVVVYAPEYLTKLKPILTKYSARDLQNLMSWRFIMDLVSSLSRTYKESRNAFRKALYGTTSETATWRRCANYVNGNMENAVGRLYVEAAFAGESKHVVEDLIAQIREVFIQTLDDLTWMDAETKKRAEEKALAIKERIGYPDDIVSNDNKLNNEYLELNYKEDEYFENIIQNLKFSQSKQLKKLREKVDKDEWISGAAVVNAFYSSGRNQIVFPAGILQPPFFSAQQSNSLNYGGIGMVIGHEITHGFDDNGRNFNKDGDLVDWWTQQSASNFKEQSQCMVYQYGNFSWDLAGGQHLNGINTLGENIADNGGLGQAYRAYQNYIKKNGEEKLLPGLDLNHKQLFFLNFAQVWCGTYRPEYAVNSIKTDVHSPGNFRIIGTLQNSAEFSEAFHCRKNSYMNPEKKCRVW

## CC(C)C[C@H](N)C(=O)N[C@H](C(=O)N[C@H](C(=O)N[C@@H](Cc1ccc(O)cc1)C(=O)N1CCC[C@H]1C(=O)N[C@@H](Cc1c[nH]c2ccccc12)C(=O)N[C@H](C(=O)O)[C@@H](C)O)C(C)C)C(C)C [III, Spinorphin (Leu-Val-Val-Tyr-Pro-Trp-Thr)] (H-LVVYPWT-OH)
[1]; 4 h incubation, triplicate
  % of remaining peptide in human plasma after 4 h: completely decomposed

## CC(C)C[C@H](NC(=O)[C@@H](N)CSSC[C@H](N)C(=O)N[C@@H](CC(C)C)C(=O)N[C@H](C(=O)N[C@H](C(=O)N[C@@H](Cc1ccc(O)cc1)C(=O)N1CCC[C@H]1C(=O)N[C@@H](Cc1c[nH]c2ccccc12)C(=O)N[C@H](C(=O)O)[C@@H](C)O)C(C)C)C(C)C)C(=O)N[C@H](C(=O)N[C@H](C(=O)N[C@@H](Cc1ccc(O)cc1)C(=O)N1CCC[C@H]1C(=O)N[C@@H](Cc1c[nH]c2ccccc12)C(=O)N[C@H](C(=O)O)[C@@H](C)O)C(C)C)C(C)C [IX, (Cys-Leu-Val-Val-Tyr-Pro-Trp-Thr)2] (HELM PEPTIDE1{C.L.V.V.Y.P.W.T}|PEPTIDE2{C.L.V.V.Y.P.W.T}$PEPTIDE1,PEPTIDE2,1:R3-1:R3$$$V2.0)
[2]
  solubility in Tris-HCl buffer with 3% DMSO: did not help to dissolve

## CC(C)C[C@H](NC(=O)[C@@H](N)CSSC[C@H](N)C(=O)N[C@@H](CCC(N)=O)C(=O)N[C@@H](Cc1c[nH]cn1)C(=O)N[C@@H](CC(N)=O)C(=O)N1CCC[C@H]1C(=O)N[C@@H](CCCNC(=N)N)C(=O)O)C(=O)N[C@H](C(=O)N[C@H](C(=O)N[C@@H](Cc1ccc(O)cc1)C(=O)N1CCC[C@H]1C(=O)N[C@@H](Cc1c[nH]c2ccccc12)C(=O)N[C@H](C(=O)O)[C@@H](C)O)C(C)C)C(C)C [Peptide X, Cys-Gln-His-Asn-Pro-Arg │ Cys-Leu-Val-Val-Tyr-Pro-Trp-Thr] (HELM PEPTIDE1{C.L.V.V.Y.P.W.T}|PEPTIDE2{C.Q.H.N.P.R}$PEPTIDE1,PEPTIDE2,1:R3-1:R3$$$V2.0)
[1]; 2 h incubation, times higher
  level of peptide in human plasma after 2 h relative to spinorphin: 4 times
[1]; 4 h incubation, triplicate, read-out: % of remaining peptide in human plasma after 4 h
  remaining at 4 h: 42%
[1]; 24 h incubation, triplicate, read-out: % of remaining peptide in human plasma after 24 h
  remaining at 24 h: 8%

## Gln-His-Asn-Pro-Arg [Peptide I, Sialorphin (Gln-His-Asn-Pro-Arg)]
[3]; without inhibitor 25.35 ± 1.05
  1000 × k, degradation rate of Met-enkephalin incubated with NEP and peptide: 8.84 ± 0.27 ** 1/min
[3]; without inhibitor 27 ± 1
  t1/2, half-life of Met-enkephalin incubated with NEP and peptide: 78 ± 2 min

## Opiorphin (Gln-Arg-Phe-Ser-Arg) [II]
[4]
  anti-inflammatory effect in TNBS-induced colitis: lack of a anti-inflammatory effect
[5]
  amount that disappears in human plasma because of potential complex formation: 12%
  metabolic half-life in human plasma: 5 min
[5]; maximum
  disappearance in human plasma by cyclization of Gln1 to Glp: ≤ 16%

## Pal-KKQRFSR
[4]
  anti-inflammatory effect in TNBS-induced colitis: lack of a anti-inflammatory effect

## Sialorphin (Gln-His-Asn-Pro-Arg) [Peptide I]
[4]
  anti-inflammatory effect in TNBS-induced colitis: potent anti-inflammatory activity
[6]; 4 h incubation, RP-HPLC, ref Sobocinska et al. [21]
  remaining peptide in human plasma after 4 h: completely decomposed
[6]
  stability in human plasma: sensitive to degradation
